pIC50: −log10 of the molar value. Like-named read-outs stand apart in the source and are kept apart here.
Target: human P2X7 receptor (Homo sapiens, UniProt Q99572, R270H/Y155H)
Experiment: Evaluation of human P2X7 receptor inhibitory activity (Yo-Pro uptake, BzATP stimulation, FLIPR TETRA)
Format: cell-based
In short: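 Yo-Pro dye uptake triggered by BzATP was monitored by FLIPR in human P2X7-transfected 1321N1 cells (SNP variant) in HEPES-buffered HBSS, pH 7.4-7.5. Compound was dispensed 8 min post-stimulation, then signal read for 20 min; IC50 derived logistically from inhibition of the fluorescence range.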

[1] = antagonistic activity for the human P2X7 receptor, read-out: IC50

## CCOc1cc(Nc2nc(=O)c(F)cn2Cc2cc(F)c(F)c(F)c2)c(C)cc1F [Compound I-1030]
[1]
  pIC50: > 8.00

## CCOc1cc(Nc2nc(=O)c(F)cn2Cc2ccc(F)c(Cl)c2)c(C)cc1F [Compound I-1031]
[1]
  pIC50: > 8.00

## CCOc1cc(Nc2nc(=O)c(F)cn2Cc2cc(F)cc(F)c2)c(C)cc1F [Compound I-1032]
[1]
  pIC50: 7.00 to 8.00

## CCOc1cc(Nc2nc(=O)c(F)cn2Cc2ccc(F)c(F)c2)c(C)cc1F [Compound I-1033]
[1]
  pIC50: > 8.00

## CCOc1ccc(Nc2nc(=O)c(F)cn2Cc2cc(F)c(F)c(F)c2)c(C)c1 [Compound I-1034]
[1]
  pIC50: > 8.00

## CCOc1ccc(Nc2nc(=O)c(F)cn2Cc2ccc(F)c(Cl)c2)c(C)c1 [Compound I-1035]
[1]
  pIC50: 7.00 to 8.00

## COc1ccc(Nc2nc(=O)c(F)cn2Cc2cc(F)c(F)c(F)c2)c(C)n1 [Compound I-1036]
[1]
  pIC50: 7.00 to 8.00

## COc1ccc(Nc2nc(=O)c(F)cn2Cc2cc(F)cc(F)c2)c(C)n1 [Compound I-1037]
[1]
  pIC50: 7.00 to 8.00

## CCOc1cc(C)c(Nc2nc(=O)c(F)cn2Cc2cc(F)c(F)c(F)c2)cc1F [Compound I-1038]
[1]
  pIC50: 7.00 to 8.00

## Cc1cc(OC(F)F)ccc1Nc1nc(=O)c(F)cn1Cc1cc(F)c(F)c(F)c1 [Compound I-1039]
[1]
  pIC50: 7.00 to 8.00

## Cc1cc2[nH]ccc2cc1Nc1nc(=O)c(F)cn1Cc1ccc(F)c(Cl)c1 [Compound I-1042]
[1]
  pIC50: > 8.00

## Cc1cc2[nH]ccc2cc1Nc1nc(=O)c(F)cn1Cc1ccc(F)c(F)c1 [Compound I-1043]
[1]
  pIC50: > 8.00

## Cc1cc2[nH]ccc2cc1Nc1nc(=O)c(F)cn1Cc1cc(F)cc(F)c1 [Compound I-1044]
[1]
  pIC50: > 8.00

## Cc1cc2[nH]ccc2cc1Nc1nc(=O)c(F)cn1Cc1cc(F)c(F)c(F)c1 [Compound I-1045]
[1]
  pIC50: > 8.00

## Cc1cc2c(cc1Nc1nc(=O)c(F)cn1Cc1cc(F)c(F)c(F)c1)CCO2 [Compound I-1046]
[1]
  pIC50: > 8.00

## CCOc1ccc(Nc2nc(=O)c(F)cn2Cc2cc(F)cc(F)c2)c(C)c1 [Compound I-1047]
[1]
  pIC50: 7.00 to 8.00

## CCOc1ccc(Nc2nc(=O)c(F)cn2Cc2ccc(F)c(F)c2)c(C)c1 [Compound I-1048]
[1]
  pIC50: 7.00 to 8.00

## COc1ccc(Nc2nc(=O)c(F)cn2Cc2ccc(F)c(F)c2)c(C)n1 [Compound I-1049]
[1]
  pIC50: 7.00 to 8.00

## COc1cc(Nc2nc(=O)c(F)cn2Cc2ccc(F)c(Cl)c2)c(C)cc1F [Compound I-1051]
[1]
  pIC50: > 8.00

## COc1cc(Nc2nc(=O)c(F)cn2Cc2ccc(F)c(F)c2)c(C)cc1F [Compound I-1052]
[1]
  pIC50: > 8.00

## Cc1ccc(N2CC3CCC2C3)cc1Nc1nc(=O)c(F)cn1Cc1cc(F)c(F)c(F)c1 (centres unmarked) [Compound I-1053]
[1]
  pIC50: 7.00 to 8.00

## Cc1cc2cc(Nc3nc(=O)c(F)cn3Cc3cc(F)c(F)c(F)c3)c(C)cc2[nH]1 [Compound I-1054]
[1]
  pIC50: > 8.00

## Cc1cc2cc(Nc3nc(=O)c(F)cn3Cc3ccc(F)c(Cl)c3)c(C)cc2[nH]1 [Compound I-1055]
[1]
  pIC50: 7.00 to 8.00

## Cc1cc2cc(Nc3nc(=O)c(F)cn3Cc3ccc(F)c(F)c3)c(C)cc2[nH]1 [Compound I-1056]
[1]
  pIC50: 7.00 to 8.00

## Cc1cc2cc(Nc3nc(=O)c(F)cn3Cc3cc(F)cc(F)c3)c(C)cc2[nH]1 [Compound I-1057]
[1]
  pIC50: 7.00 to 8.00

## COc1cc(Nc2nc(=O)c(F)cn2Cc2cc(F)c(F)c(F)c2)c(C)cc1F [Compound I-1058]
[1]
  pIC50: > 8.00

## COc1ccc(Nc2nc(=O)c(F)cn2Cc2ccc(F)c(Cl)c2)c(C)n1 [Compound I-1059]
1321N1 cells stably expressing human P2X7 receptor, BzATP stimulation, Yo-Pro uptake, read-out: IC50 (antagonistic activity for the human P2X7 receptor)
  pIC50: 7.96

## CCOc1cc(C)c(Nc2nc(=O)c(F)cn2Cc2ccc(F)c(Cl)c2)cc1F [Compound I-1060]
[1]
  pIC50: 7.00 to 8.00

## CCOc1cc(C)c(Nc2nc(=O)c(F)cn2Cc2cc(F)cc(F)c2)cc1F [Compound I-1061]
[1]
  pIC50: 7.00 to 8.00

## CCOc1cc(C)c(Nc2nc(=O)c(F)cn2Cc2ccc(F)c(F)c2)cc1F [Compound I-1062]
[1]
  pIC50: 7.00 to 8.00

## Cc1cc(OC(F)F)ccc1Nc1nc(=O)c(F)cn1Cc1ccc(F)c(Cl)c1 [Compound I-1063]
[1]
  pIC50: 7.00 to 8.00

## Cc1cc(OC(F)F)ccc1Nc1nc(=O)c(F)cn1Cc1cc(F)cc(F)c1 [Compound I-1064]
[1]
  pIC50: 7.00 to 8.00
